Several values for one entry are separate records, joined by “and”; a condition that tells them apart may be missing. Equal values may be shown once. Entries after “also recorded” stand apart in the source; their conditions may differ. Read-outs that look alike come from different tables or passages of the source.
Legend:
hPTP1B1–400 [1] = biological target: T1, hPTP1B1–400 (Homo sapiens, UniProt P18031); experiment: Kinetic studies of PTP1B (hPTP1B1–400); conditions: for Inhibition type: hPTP1B1–400; for K m / V max / Ki: ± S.D; for K m / V max: hPTP1B1–400 with inhibitor; for Ki: K i, hPTP1B1–400, p‐NPP 0.1 to 0.5 mM;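 as to all read-outs here: enzyme kinetics run across a range of substrate and inhibitor levels, control lacking inhibitor, triplicate runs, parameters derived by fitting Michaelis–Menten style equations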
T1 sequence (P18031 1-400): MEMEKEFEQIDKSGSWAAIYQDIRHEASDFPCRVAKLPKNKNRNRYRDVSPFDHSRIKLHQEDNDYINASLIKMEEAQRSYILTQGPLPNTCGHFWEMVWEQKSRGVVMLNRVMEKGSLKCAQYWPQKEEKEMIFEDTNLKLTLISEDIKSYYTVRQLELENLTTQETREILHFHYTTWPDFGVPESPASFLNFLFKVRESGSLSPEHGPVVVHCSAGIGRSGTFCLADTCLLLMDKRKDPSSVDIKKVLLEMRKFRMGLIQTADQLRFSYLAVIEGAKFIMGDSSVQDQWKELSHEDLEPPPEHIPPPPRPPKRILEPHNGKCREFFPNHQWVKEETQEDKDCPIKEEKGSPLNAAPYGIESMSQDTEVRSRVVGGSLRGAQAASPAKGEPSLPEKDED
Description: Kinetic analyses were performed at various substrate and inhibitor concentrations.
The negative control was prepared with the enzyme and substrate in the absence of the inhibitor. Experiments were conducted in triplicate.^[ [30] ^] […] The kinetic parameters of enzyme inhibition, K m and V max, were determined by fitting the data to the Michaelis‐Menten model, Equation (3) (OriginPro 2018 (64‐bit) SR1). (3) y=VmaxX/Km+X´ where V max: is the maximum velocity, X: is the inhibitor concentration, K m: Michaelis constant.
(4) y=Vmax(X)/(Km/1+I/Ki)+X where V max: maximum velocity, X: substrate concentration, I: inhibitor concentration, K m: Michaelis constant, K i : inhibition constant.

hPTP1B1−322 = system: hPTP1B1−322; parameters: method as in PMID 37628991; conditions: previous research, cited from earlier work; for IC50: read-out: IC50 against hPTP1B1−322; for Ki: read-out: K i against hPTP1B1−322
TCPTP = biological target: T2, TCPTP (Homo sapiens, UniProt P17706); experiment: T‐cell protein tyrosine phosphatase (TCPTP) activity assay (p‐NPP); format: biochemical; conditions: for TCPTP inhibition (in words): up to 100 μM
T2 sequence (P17706 1-415): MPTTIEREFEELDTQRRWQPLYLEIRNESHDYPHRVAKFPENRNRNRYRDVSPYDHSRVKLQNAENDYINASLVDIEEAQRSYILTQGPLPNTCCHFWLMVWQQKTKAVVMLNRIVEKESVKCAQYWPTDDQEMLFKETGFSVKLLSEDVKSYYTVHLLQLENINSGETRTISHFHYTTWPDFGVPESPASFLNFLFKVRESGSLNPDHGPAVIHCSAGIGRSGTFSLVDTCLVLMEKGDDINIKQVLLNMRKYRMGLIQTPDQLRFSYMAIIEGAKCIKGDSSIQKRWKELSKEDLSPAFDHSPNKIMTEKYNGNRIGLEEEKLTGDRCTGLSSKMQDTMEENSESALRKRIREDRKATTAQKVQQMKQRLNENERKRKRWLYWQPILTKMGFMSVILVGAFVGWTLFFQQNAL
Description: The effectiveness and safety of protein tyrosine phosphatase (PTP) inhibitors depend on their specificity. PTP1B and TCPTP serve different functions: PTP1B is involved in metabolism and cancer, while TCPTP regulates immune function. Inhibiting TCPTP could impact the immune response, whereas inhibiting PTP1B may benefit metabolic diseases without these side effects.^[ [20] ^, [34] ^, [35] ^] […] These compounds were assessed up to 100 μM (Table 1).
TCPTP enzyme reported by Mendoza et al. was used for this assay. […] Aliquots of 0–10 µL (triplicate) of the newly synthesized compounds, positive control, and solvent were taken. These were incubated with 85 µL of enzyme solution (Tris, 50 mM, pH 6.8, TCPTP) and 5 µL of substrate (p‐NPP, 10 mM) for 15 min at 37 °C.

hPTP1B1–400 [2] = biological target: T1, hPTP1B1–400; experiment: PTP1B activity assay, long form hPTP1B1–400 (p‐NPP); format: biochemical; parameters: hPTP1B1–400 (the long form with an intrinsically disordered C‐terminal regulatory domain); conditions: for IC50: ± S.D, p‐NPP substrate, 15 min at 37 °C, triplicate
Description: (§1) The inhibitory activity of PTP1B was assessed using two enzyme variants: hPTP1B1–285 (the short form with an N‐terminal catalytic domain) and hPTP1B1–400 (the long form with an intrinsically disordered C‐terminal regulatory domain). […] According to Coronel‐Tovar et al., the disordered region of the C‐terminal domain plays a crucial role in modulating PTP1B enzymatic activity.^[ [30] ^] […] Different concentrations of the compounds were evaluated to determine their IC50 values (Table 1 ).
(§2) Recombinant human protein tyrosine phosphatase 1B, consisting of 400 and 285 amino acid residues, was used.^[ [35] ^] […] Aliquots of 0–10 µL of the test compounds (triplicate) were taken and incubated for 15 min at 37 °C with 85 µL of Tris buffer solution (50 mM, pH 6.8) containing PTP1B enzyme and 5 µL of p‐nitrophenyl phosphate substrate (p‐NPP, 10 mM). Absorbance was then measured at a wavelength of 405 nm. The inhibitory activity was determined according to Equation (1). (1) % PTP1B=(A405b/A405c)×100 where % PTP1B: Is the percentage of inhibition. A 405c: Is the corrected absorbance of the blank (A 405initial–A 405final). A 405b: Is the corrected absorbance of the compounds (A 405control–A 405compound).

hPTP1B1–285 = biological target: T3, hPTP1B1–285 (Homo sapiens, UniProt P18031); experiment: PTP1B activity assay, short form hPTP1B1–285 (p‐NPP); format: biochemical; conditions: ± S.D; p‐NPP substrate, 15 min at 37 °C
T3 construct: hPTP1B1–285 (the short form with an N‐terminal catalytic domain)
T3 sequence (P18031 1-285): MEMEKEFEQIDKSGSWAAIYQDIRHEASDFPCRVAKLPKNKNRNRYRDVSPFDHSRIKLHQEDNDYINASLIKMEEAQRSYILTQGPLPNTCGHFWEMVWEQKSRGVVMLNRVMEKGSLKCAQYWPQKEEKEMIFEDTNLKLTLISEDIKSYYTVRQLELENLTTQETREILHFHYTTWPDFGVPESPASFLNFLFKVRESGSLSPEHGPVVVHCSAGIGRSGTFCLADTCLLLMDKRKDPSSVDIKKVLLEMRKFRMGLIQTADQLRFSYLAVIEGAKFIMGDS
Description: as §1
To do so, these terpenoids were tested against hPTP1B1–285.
as §2

HepG2 cells = experiment: Cell viability with crystal violet; format: cell-based; conditions: 1 and 25 µM, 24 h
Description: (§3) Subsequently, we evaluated the same compounds in a HepG2 insulin‐resistant model.
A 96‐well plate was seeded with 3,000 cells per well and incubated for 24 h. Afterward, the cells were treated with test compounds at various concentrations for 24 h. After incubation, the media was removed, and 100 µL of 1% glutaraldehyde was added for 15 min. Afterward, the liquid was removed, and 50 µL of 0.5% crystal violet (dissolved in 25% methanol) was added for 30 min. The crystal violet staining solution was removed, and the plate was thoroughly washed with tap water. The precipitate was dissolved in a 10% acetic acid solution and mixed for 15 min. The absorbance was then measured at 590 nm using a plate reader (xMark Microplate Spectrophotometer—Bio‐Rad).
Figure S59. Cell viability assessment by crystal violet staining. HepG2 cell viability was evaluated
after treatment with the respective compounds at concentrations of 1 and 25 µM for 24 hours. Bar
graphs represent mean ± SEM.

PTP1B = conditions: cited from earlier work
[3] = system: insulin‐resistant HepG2 cells; experiment: Insulin‐resistant HepG2 model, western blotting of PTP1B and pAKT; format: cell-based; conditions: 24 h, western blot
Description: as §3
Bar graphs represent the mean ± SEM of normalized values. The control levels were set at 1. T‐test significance *p < 0.05, when compared with control (DMSO). Statistical analyses were carried out using GraphPad Prism 8.0.
For the resistant insulin model using HepG2 cells, the following reagents were acquired from Sigma–Aldrich (Toluca, MEX, Mexico, and St. Louis, MO, USA): Insulin (I2643), Dulbecco's modified eagle's medium (DMEM) low glucose media (D5523), Trypsin‐EDTA solution (T4174), antibiotic‐antimycotic solution(A5955), dimethyl sulfoxide (DMSO‐D8418), sodium deoxycholate (D6750), triethylammonium bicarbonate buffer 1 M (TEAB‐T7408), glutaraldehyde 25% (G6275), acetic acid (695092), and crystal violet (C0775). The bicinchoninic acid protein quantitation kit (23225) and the Halt Cocktail with protease and phosphatase inhibitors (1861281) were acquired from ThermoFisherScientific. Fetal bovine serum (26140–079) was from Gibco. The chemiluminescent solution (170–5061) was acquired from Biorad. Rabbit anti‐PTP1B (5311S) and mouse anti‐β actin (3700S) primary antibodies were obtained from Cell Signaling, and secondary antibodies coupled with horseradish peroxidase were from Jackson laboratories (rabbit‐111−035, mouse‐115–035).
Treated cells with compounds were washed twice with 1 mL of PBS, and protein was extracted using 500 µL of a buffer solution containing 10% sodium deoxycholate in 10% TEAB, supplemented with a protease and phosphatase inhibitor cocktail. The extracts were heated to 80 °C for 5 min and disaggregated through passages with an insulin syringe. The cell extracts were centrifuged at 15,000 rpm for 15 min at 4 °C, and the supernatant was collected. Protein quantification was performed using the bicinchoninic acid assay method, and aliquots were prepared for western blotting. SDS/PAGE was conducted, and proteins were transferred onto a nitrocellulose membrane. The membrane was then blocked with 10% skimmed milk in TBST for 1 h and incubated overnight with primary antibodies (1:400 dilution). Secondary antibodies coupled to horseradish peroxidase were diluted 1:2000, and membranes were incubated for 1 h. The blots were documented using the ChemiDoc MP (Bio‐Rad), and densitometric analysis was performed using ImageJ (U.S. National Institutes of Health). Statistical analyses were carried out using GraphPad Prism 8.0.

[4] = ± S.D, assessed up to 100 μM, read-out: TCPTP IC50

## CC1(C)[C@@H](O)CC[C@]2(C)[C@H]3C(=O)C=C4[C@H]5C[C@@](C)(C(=O)O)CC[C@]5(C)CC[C@@]4(C)[C@]3(C)CC[C@@H]12 [18α‐GA, 18α‐glycyrrhetinic acid]
hPTP1B1–400 [1]
  Inhibition type: uncompetitive inhibition
  K m: 2110 ± 680 µM
  V max: 1.94 ± 0.54 mM/min
hPTP1B1−322
  type of inhibition against hPTP1B1−322: competitive inhibition
  IC50: 10.4 µM
  Ki: 3.17 µM
TCPTP
  IC50: > 100 µM
  TCPTP inhibition (in words): do not inhibit TCPTP

## CC1(C)[C@@H](O)CC[C@]2(C)[C@H]3C(=O)C=C4[C@@H]5C[C@@](C)(C(=O)O)CC[C@]5(C)CC[C@@]4(C)[C@]3(C)CC[C@@H]12 [18β‐GA, 18β‐glycyrrhetinic acid]
hPTP1B1–400 [1]
  Inhibition type: uncompetitive inhibition
  K m: 2830 ± 960 µM
  V max: 3.13 ± 0.94 mM/min
hPTP1B1−322
  type of inhibition against hPTP1B1−322: competitive inhibition
  IC50: 26.1 µM
  Ki: 16.2 µM
TCPTP
  IC50: > 100 µM
  TCPTP inhibition (in words): do not inhibit TCPTP

## CC1(C(=O)O)CCC2(C)CCC3(C)C(=CCC4C5(C)Cc6c([nH]c7ccc(C(F)(F)F)cc67)C(C)(C)C5CCC43C)C2C1 (stereo not drawn) [Compound 3a]
hPTP1B1–400 [2]; hPTP1B1–400
  potency relative to 18α‐GA: half as potent
hPTP1B1–400 [2]
  IC50: 4.44 ± 0.22 µM
TCPTP; [4]
  IC50: > 100 µM

## CC1(C(=O)O)CCC2(C)CCC3(C)C(=CCC4C5(C)Cc6c([nH]c7ccc(C(F)(F)F)cc67)C(C)(C)C5CCC43C)C2C1 (stereo not drawn) [Compound 3b]
hPTP1B1–400 [1]
  Ki: 1.16 ± 0.13 µM
  Inhibition type: uncompetitive inhibition
  K m: 530 ± 80 µM
  V max: 0.63 ± 0.06 mM/min
hPTP1B1–400 [2]
  IC50: 2.84 ± 0.26 µM
TCPTP; [4]
  IC50: > 100 µM

## Cc1ccc(-n2ncc3c2C(C)(C)C2CCC4(C)C(CC=C5C6CC(C)(C(=O)O)CCC6(C)CCC54C)C2(C)C3)cc1 (stereo not drawn) [Compound 5a]
hPTP1B1–400 [2]
  IC50: 2.05 ± 0.09 µM
TCPTP; [4]
  IC50: > 100 µM

## Cc1ccc(-n2ncc3c2C(C)(C)C2CCC4(C)C(CC=C5C6CC(C)(C(=O)O)CCC6(C)CCC54C)C2(C)C3)cc1 (stereo not drawn) [Compound 5b]
hPTP1B1–400 [2]
  IC50: 2.54 ± 0.05 µM
TCPTP; [4]
  IC50: > 100 µM

## Cc1ccc(-n2ncc3c2C(C)(C)C2CCC4(C)C(C(=O)C=C5C6CC(C)(C(=O)O)CCC6(C)CCC54C)C2(C)C3)cc1 (stereo not drawn) [Compound 5c]
hPTP1B1–400 [1]
  Ki: 0.22 µM and 0.224 µM
  Inhibition type: uncompetitive inhibition
  K m: 1420 ± 320 µM
  V max: 1.54 ± 0.28 mM/min
hPTP1B1–285
  IC50: 31.6 ± 0.88 µM
hPTP1B1–400 [2]
  IC50: 1.57 ± 0.04 µM
TCPTP; [4]
  IC50: > 100 µM
HepG2 cells
  HepG2 cell viability: No significant differences; also recorded: did not compromise HepG2 cell viability

## [Na+].[Na+].[Na+].[O]=[V]([O-])([O-])[O-] [SOV, sodium orthovanadate]
TCPTP
  TCPTP inhibition (in words): inhibited both PTP1B and TCPTP
PTP1B
  type of PTP1B inhibition: nonselective, competitive, and reversible inhibitor

## Cc1ccc(C(=O)Nc2ccc(S(=O)(=O)O)c3cc(S(=O)(=O)O)cc(S(=O)(=O)O)c23)cc1NC(=O)c1cccc(NC(=O)Nc2cccc(C(=O)Nc3cc(C(=O)Nc4ccc(S(=O)(=O)O)c5cc(S(=O)(=O)O)cc(S(=O)(=O)O)c45)ccc3C)c2)c1 [SU, suramin]
PTP1B
  type of PTP1B inhibition: competitive and reversible inhibitor

## C[C@H]1[C@H](C)CC[C@]2(C(=O)O)CC[C@]3(C)C(=CC[C@@H]4[C@@]5(C)CC[C@H](O)C(C)(C)[C@@H]5CC[C@]43C)[C@H]12 [UA, ursolic acid]
[3]
  AKT phosphorylation (pAKT) levels: did not demonstrate a notable change
  PTP1B levels: neither metformin, ursolic acid, nor GA derivatives significantly reduced PTP1B levels
TCPTP
  IC50: > 100 µM

## CN(C)C(=N)N=C(N)N [metformin]
[3]
  AKT phosphorylation (pAKT) levels: significant increase
  PTP1B levels: neither metformin, ursolic acid, nor GA derivatives significantly reduced PTP1B levels

Reference: publication PMC12640663 (Chemmedchem, 2025)
